Results: article PMC2664976 (The Journal of General Physiology, 2009)

Tests used:
SLC26A9 = target: T1, SLC26A9 (Homo sapiens, UniProt Q7LBE3); experiment: whole cell patch clamp, HEK […] chloride current; format: cell-based; settings: read-out: % inhibition at 50 μM
T1 sequence (Q7LBE3 1-791): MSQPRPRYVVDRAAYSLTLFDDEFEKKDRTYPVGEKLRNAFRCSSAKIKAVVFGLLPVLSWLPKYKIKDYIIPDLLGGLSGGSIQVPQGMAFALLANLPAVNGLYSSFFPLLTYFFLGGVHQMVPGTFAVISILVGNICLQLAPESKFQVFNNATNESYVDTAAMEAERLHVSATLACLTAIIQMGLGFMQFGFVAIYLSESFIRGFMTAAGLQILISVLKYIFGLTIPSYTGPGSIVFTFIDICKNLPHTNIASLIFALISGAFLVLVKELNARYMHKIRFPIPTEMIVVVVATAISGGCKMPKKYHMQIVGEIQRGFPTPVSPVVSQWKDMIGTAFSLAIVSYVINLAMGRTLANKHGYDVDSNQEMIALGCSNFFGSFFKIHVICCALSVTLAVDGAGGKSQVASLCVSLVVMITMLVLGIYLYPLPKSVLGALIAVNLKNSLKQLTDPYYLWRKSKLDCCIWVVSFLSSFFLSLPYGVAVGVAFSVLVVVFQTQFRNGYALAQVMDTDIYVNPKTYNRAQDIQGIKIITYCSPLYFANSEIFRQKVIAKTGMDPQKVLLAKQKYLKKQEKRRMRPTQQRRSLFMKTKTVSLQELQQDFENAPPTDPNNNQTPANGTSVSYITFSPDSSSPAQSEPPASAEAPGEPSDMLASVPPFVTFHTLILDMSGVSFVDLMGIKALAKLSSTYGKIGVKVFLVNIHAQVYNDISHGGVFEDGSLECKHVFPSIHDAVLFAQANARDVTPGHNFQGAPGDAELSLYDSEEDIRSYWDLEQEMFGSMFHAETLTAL

wtCFTR = wtCFTR (Homo sapiens, UniProt P13569); experiment: whole cell patch clamp, HEK […] chloride current; format: cell-based
Chain of wtCFTR (P13569 whole entry): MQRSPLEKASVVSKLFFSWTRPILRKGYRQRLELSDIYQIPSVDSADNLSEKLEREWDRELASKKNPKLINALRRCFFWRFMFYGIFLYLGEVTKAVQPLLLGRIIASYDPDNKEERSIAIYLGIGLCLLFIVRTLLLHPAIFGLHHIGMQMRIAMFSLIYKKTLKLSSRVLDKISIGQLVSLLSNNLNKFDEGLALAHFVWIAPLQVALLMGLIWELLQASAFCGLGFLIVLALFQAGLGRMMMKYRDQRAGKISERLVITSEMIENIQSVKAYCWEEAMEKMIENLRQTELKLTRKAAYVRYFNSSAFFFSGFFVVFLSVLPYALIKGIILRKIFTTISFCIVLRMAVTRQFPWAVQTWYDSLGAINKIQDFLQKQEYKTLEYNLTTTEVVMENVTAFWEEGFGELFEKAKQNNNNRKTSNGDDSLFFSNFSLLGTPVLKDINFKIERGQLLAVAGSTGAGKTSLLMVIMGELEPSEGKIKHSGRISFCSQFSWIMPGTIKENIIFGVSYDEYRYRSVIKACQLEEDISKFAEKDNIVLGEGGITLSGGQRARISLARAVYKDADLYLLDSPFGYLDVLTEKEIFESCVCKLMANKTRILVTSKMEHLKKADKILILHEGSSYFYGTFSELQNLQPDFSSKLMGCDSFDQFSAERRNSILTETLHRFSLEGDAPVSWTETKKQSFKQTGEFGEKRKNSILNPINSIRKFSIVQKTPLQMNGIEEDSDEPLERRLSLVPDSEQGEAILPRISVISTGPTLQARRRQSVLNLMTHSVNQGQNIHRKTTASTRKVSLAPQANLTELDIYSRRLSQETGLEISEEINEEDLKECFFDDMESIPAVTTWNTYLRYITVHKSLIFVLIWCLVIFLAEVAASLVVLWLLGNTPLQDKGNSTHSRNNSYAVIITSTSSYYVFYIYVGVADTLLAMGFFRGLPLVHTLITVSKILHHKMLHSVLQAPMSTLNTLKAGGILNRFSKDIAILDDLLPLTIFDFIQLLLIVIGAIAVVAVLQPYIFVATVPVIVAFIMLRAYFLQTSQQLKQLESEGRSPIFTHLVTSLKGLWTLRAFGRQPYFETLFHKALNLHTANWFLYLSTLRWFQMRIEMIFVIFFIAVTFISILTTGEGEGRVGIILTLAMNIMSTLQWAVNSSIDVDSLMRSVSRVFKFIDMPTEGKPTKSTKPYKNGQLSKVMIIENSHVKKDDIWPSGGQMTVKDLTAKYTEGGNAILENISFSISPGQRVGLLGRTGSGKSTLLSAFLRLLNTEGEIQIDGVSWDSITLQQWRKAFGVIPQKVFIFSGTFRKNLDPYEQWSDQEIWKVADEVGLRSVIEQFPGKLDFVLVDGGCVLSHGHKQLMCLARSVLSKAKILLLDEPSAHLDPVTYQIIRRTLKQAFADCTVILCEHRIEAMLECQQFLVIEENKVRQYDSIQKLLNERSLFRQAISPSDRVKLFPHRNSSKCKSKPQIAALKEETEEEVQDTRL

`O=C(CNc1ccc2ccccc2c1)NN=Cc1cc(Br)c(O)c(Br)c1O` [GlyH-101] showed an inhibition at 50 µM (SLC26A9) of 71 ± 4% and an inhibition at 50 µM (wtCFTR; read-out: % inhibition (GlyH-101, 50 μM)) of 90 ± 2%.
`COc1ccc(Cl)cc1C(=O)NCCc1ccc(S(=O)(=O)NC(=O)NC2CCCCC2)cc1` [glibenclamide] showed an inhibition at 100 µM (wtCFTR; read-out: % inhibition (glibenclamide, 100 μM)) of 52 ± 10%.
